Test results reported in the supplement of paper PMC10883282.

How the values were obtained:
Experiment in all cases: relative viability vs DMSO control (72 h) (fraction); higher = more viable cells
HT1080 = system: HT1080
Procedure, shortened: (§1)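 Sarcoma cell lines were seeded in 384-well plates at densities set to reach 80–90% confluence. After 24 h, 2.5 µl of serially diluted compound was added (source plates 10 mM to 0.0002 mM), and plates were held 72 h at 37 °C, 5% CO2, with 0.1% DMSO vehicle and a 5 µM positive control. Relative viability came from ATPLite readings as percent growth, averaged over up to triplicate wells. Data were rescaled so full viability equals 1 and none equals 0.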

KHOS-NP = system: KHOS-NP
Procedure, shortened: as §1

SK-ES-1 = system: SK-ES-1
Procedure, shortened: as §1

RD-ES = system: RD-ES
Procedure, shortened: as §1

SW982 = system: SW982
Procedure, shortened: as §1

KHOS-240S = system: KHOS-240S
Procedure, shortened: as §1

G401 = system: G401
Procedure, shortened: as §1

A204 = system: A204
Procedure, shortened: as §1

SW1353 = system: SW1353
Procedure, shortened: as §1

SW872 = system: SW872
Procedure, shortened: as §1

SYO-1 = system: SYO-1
Procedure, shortened: as §1

SW684 = system: SW684
Procedure, shortened: as §1

O=S(=O)(c1cccc2cnccc12)N1CCCNCC1 [Fasudil]
relative viability
Conditions | 0.00051 µM | 0.00152 µM | 0.00457 µM | 0.01372 µM | 0.04115 µM | 0.1235 µM | 0.3704 µM | 1.111 µM | 3.333 µM | 10 µM
A204 | 0.98 | 1.03 | 1.02 | 1.02 | 1.01 | 0.987 | 1.01 | 0.991 | 0.973 | 0.891
G401 | 0.9413 | 0.92867 | 0.943 | 0.948 | 0.945 | 0.975 | 0.972 | 0.984 | 1.01 | 1
HT1080 | 1.03 | 1.03 | 1.066 | 1.04 | 1.03 | 1.03 | 1.06 | 1.06 | 1.07 | 1.06
KHOS-240S | 0.974 | 0.976 | 0.961 | 0.966 | 0.957 | 0.961 | 0.959 | 0.952 | 0.942 | 0.8862
KHOS-NP | 1.03 | 1.04 | 1.029 | 1.02 | 1.01 | 1.03 | 1.02 | 1.05 | 1.01 | 1.03
RD-ES | 0.957 | 0.9873 | 0.98 | 0.979 | 0.9688 | 0.98 | 1.009 | 1.005 | 1.01 | 1
SK-ES-1 | 0.955 | 0.964 | 0.963 | 0.967 | 0.996 | 0.989 | 1 | 1.02 | 1.06 | 1.04
SW684 | 1.02 | 1.02 | 0.965 | 0.945 | 0.965 | 0.986 | 1.02 | 0.95 | 0.895 | 0.761
SW872 | 0.959 | 0.979 | 0.993 | 0.964 | 0.958 | 0.9735 | 0.966 | 0.9852 | 1 | 0.929
SW982 | 0.974 | 0.974 | 0.966 | 0.987 | 0.976 | 0.971 | 0.961 | 0.977 | 0.962 | 0.966
SW1353 | 1.01 | 1.048 | 1.03 | 1.03 | 1.0327 | 1 | 1.04 | 1.03 | 0.97 | 0.888
SYO-1 | 0.95 | 0.984 | 0.954 | 0.9485 | 0.963 | 0.954 | 0.983 | 0.97 | 0.968 | 0.902

C[C@H](Nc1ncnc2nc[nH]c12)c1cc2cccc(Cl)c2c(=O)n1-c1ccccc1 [Duvelisib]
Conditions | relative viability
A204, 0.00017 µM | 1.1
A204, 0.00051 µM | 1.09
A204, 0.00152 µM | 1.07
A204, 0.00457 µM | 1.096
A204, 0.01372 µM | 1.08
A204, 0.04115 µM | 1.06
A204, 0.1235 µM | 1.01
A204, 0.3704 µM | 0.908
A204, 1.111 µM | 0.761
A204, 3.333 µM | 0.555
A204, 10 µM | 0.445
G401, 0.00017 µM | 1.07
G401, 0.00051 µM | 1.03
G401, 0.00152 µM | 1.05
G401, 0.00457 µM | 1.017
G401, 0.01372 µM | 0.987
G401, 0.04115 µM | 0.983
G401, 0.1235 µM | 0.966
G401, 0.3704 µM | 0.9339
G401, 1.111 µM | 0.862
G401, 3.333 µM | 0.763
G401, 10 µM | 0.593
HT1080, 0.00017 µM | 1.11
HT1080, 0.00051 µM | 1.14
HT1080, 0.00152 µM | 1.13
HT1080, 0.00457 µM | 1.126
HT1080, 0.01372 µM | 1.08
HT1080, 0.04115 µM | 1.14
HT1080, 0.1235 µM | 1.124
HT1080, 0.3704 µM | 1.138
HT1080, 1.111 µM | 1.147
HT1080, 3.333 µM | 1.13
HT1080, 10 µM | 1.07
KHOS-240S, 0.00017 µM | 1.05
KHOS-240S, 0.00051 µM | 1.11
KHOS-240S, 0.00152 µM | 1.08
KHOS-240S, 0.00457 µM | 1.09
KHOS-240S, 0.01372 µM | 1.06
KHOS-240S, 0.04115 µM | 1.04
KHOS-240S, 0.1235 µM | 1.05
KHOS-240S, 0.3704 µM | 1.02
KHOS-240S, 1.111 µM | 0.952
KHOS-240S, 3.333 µM | 0.9
KHOS-240S, 10 µM | 0.777
KHOS-NP, 0.00017 µM | 1.09
KHOS-NP, 0.00051 µM | 1.09
KHOS-NP, 0.00152 µM | 1.1
KHOS-NP, 0.00457 µM | 1.1
KHOS-NP, 0.01372 µM | 1.121
KHOS-NP, 0.04115 µM | 1.09
KHOS-NP, 0.1235 µM | 1.07
KHOS-NP, 0.3704 µM | 1.07
KHOS-NP, 1.111 µM | 1.08
KHOS-NP, 3.333 µM | 1.07
KHOS-NP, 10 µM | 1.07
RD-ES, 0.00017 µM | 0.991
RD-ES, 0.00051 µM | 1.01
RD-ES, 0.00152 µM | 1.04
RD-ES, 0.00457 µM | 1.04
RD-ES, 0.01372 µM | 1.02
RD-ES, 0.04115 µM | 0.996
RD-ES, 0.1235 µM | 0.956
RD-ES, 0.3704 µM | 0.932
RD-ES, 1.111 µM | 0.845
RD-ES, 3.333 µM | 0.726
RD-ES, 10 µM | 0.551
SK-ES-1, 0.00017 µM | 1.09
SK-ES-1, 0.00051 µM | 1.07
SK-ES-1, 0.00152 µM | 1.06
SK-ES-1, 0.00457 µM | 1.05
SK-ES-1, 0.01372 µM | 1.02
SK-ES-1, 0.04115 µM | 0.968
SK-ES-1, 0.1235 µM | 0.99
SK-ES-1, 0.3704 µM | 0.96
SK-ES-1, 1.111 µM | 0.8914
SK-ES-1, 3.333 µM | 0.768
SK-ES-1, 10 µM | 0.564
SW684, 0.00017 µM | 1.15
SW684, 0.00051 µM | 1.11
SW684, 0.00152 µM | 1.09
SW684, 0.00457 µM | 0.899
SW684, 0.01372 µM | 0.838
SW684, 0.04115 µM | 0.722
SW684, 0.1235 µM | 0.683
SW684, 0.3704 µM | 0.633
SW684, 1.111 µM | 0.543
SW684, 3.333 µM | 0.501
SW684, 10 µM | 0.453
SW872, 0.00017 µM | 1.11
SW872, 0.00051 µM | 1.1
SW872, 0.00152 µM | 1.08
SW872, 0.00457 µM | 1.11
SW872, 0.01372 µM | 1.08
SW872, 0.04115 µM | 1.03
SW872, 0.1235 µM | 1.02
SW872, 0.3704 µM | 0.897
SW872, 1.111 µM | 0.813
SW872, 3.333 µM | 0.666
SW872, 10 µM | 0.519
SW982, 0.00017 µM | 1.04
SW982, 0.00051 µM | 1.08
SW982, 0.00152 µM | 1.09
SW982, 0.00457 µM | 1.06
SW982, 0.01372 µM | 1.08
SW982, 0.04115 µM | 1.04
SW982, 0.1235 µM | 1
SW982, 0.3704 µM | 0.952
SW982, 1.111 µM | 0.891
SW982, 3.333 µM | 0.771
SW982, 10 µM | 0.623
SW1353, 0.00017 µM | 1.074
SW1353, 0.00051 µM | 1.06
SW1353, 0.00152 µM | 1.03
SW1353, 0.00457 µM | 1.02
SW1353, 0.01372 µM | 1.02
SW1353, 0.04115 µM | 0.996
SW1353, 0.1235 µM | 0.915
SW1353, 0.3704 µM | 0.885
SW1353, 1.111 µM | 0.786
SW1353, 3.333 µM | 0.761
SW1353, 10 µM | 0.614
SYO-1, 0.00017 µM | 1.03
SYO-1, 0.00051 µM | 1.01
SYO-1, 0.00152 µM | 0.994
SYO-1, 0.00457 µM | 0.995
SYO-1, 0.01372 µM | 0.9906
SYO-1, 0.04115 µM | 1.01
SYO-1, 0.1235 µM | 0.925
SYO-1, 0.3704 µM | 0.911
SYO-1, 1.111 µM | 0.841
SYO-1, 3.333 µM | 0.797
SYO-1, 10 µM | 0.688
